Article PMC7287735 (Molecules, 2020)
Where two headings read alike, the source gives them in different places.

Assays:
MRC-5 cells = test: Cellular toxicity to MRC-5 cells (XTT); conditions: 6 days, duplicate data points
HCoV-229E = test: Anti-coronavirus cytoprotection assay (XTT, reduction of viral cytopathic effect) in MRC-5 cells; conditions: for activity against HCoV-229E at the tested concentrations: MRC-5 cells, high test concentration 100 µM; for Therapeutic Index (TC50/EC50): MRC-5/HCoV-229E
[1] = Human coronavirus 229E, MRC5, 144 h, read-out: EC50 (effective concentration that reduced 50% of viral cytopathic effect), HCoV-229E in MRC-5 cells, 6 days, triplicate data points
[2] = listed as 5′-O-tetradecanoyl ester conjugate of FTC (9)

Compound: Nc1nc(=O)n([C@H]2CS[C@@H](CO)O2)cc1F [FTC (8), 2′,3′-dideoxy-5-fluoro-3′-thiacytidine]
- TC50 (toxic concentration that killed 50% of MRC-5 cells) (MRC-5 cells): > 100 µM
- EC50 (HCoV-229E; [1]): > 100 µM
- activity against HCoV-229E at the tested concentrations (HCoV-229E): not active

Compound: Cc1cn([C@H]2C[C@H](F)[C@@H](CO)O2)c(=O)[nH]c1=O [FLT (4), 3′-Fluoro-3′-deoxythymidine]
- TC50 (toxic concentration that killed 50% of MRC-5 cells) (MRC-5 cells): > 100 µM
- EC50 (HCoV-229E; [1]): > 100 µM
- activity against HCoV-229E at the tested concentrations (HCoV-229E): not active

Compound: C[C@H](Cn1cnc2c(N)ncnc21)OCP(=O)(O)O [TFV (2), Tenofovir]
- TC50 (toxic concentration that killed 50% of MRC-5 cells) (MRC-5 cells): > 100 µM
- EC50 (HCoV-229E; [1]): > 100 µM

Compound: C#C[C@]1(CO)O[C@@H](n2cnc3c(N)nc(F)nc32)C[C@@H]1O [EFdA (3), 4′-ethynyl-2-fluoro-2′-deoxyadenosine]
- TC50 (toxic concentration that killed 50% of MRC-5 cells) (MRC-5 cells): 55.3 µM
- TC50 (toxic concentration that killed 50% of MRC-5 cells) (MRC-5 cells; listed as 3): 45.4 to 55.3 µM
- EC50 (HCoV-229E; [1]): > 55.3 µM

Compound: Nc1ccn([C@H]2CS[C@@H](CO)O2)c(=O)n1 [3TC (6), 2′,3′-Dideoxy-3′-thiacytidine]
- TC50 (toxic concentration that killed 50% of MRC-5 cells) (MRC-5 cells): > 100 µM
- EC50 (HCoV-229E; [1]): > 100 µM
- activity against HCoV-229E at the tested concentrations (HCoV-229E): not active

Compound: CCC(CC)COC(=O)[C@H](C)N[P@](=O)(OC[C@H]1O[C@@](C#N)(c2ccc3c(N)ncnn23)[C@H](O)[C@@H]1O)Oc1ccccc1 [Remdesivir (1), Remdesivir]
- TC50 (toxic concentration that killed 50% of MRC-5 cells) (MRC-5 cells): > 2.0 µM
- TC50 (toxic concentration that killed 50% of MRC-5 cells) (MRC-5 cells; listed as Remdesivir): > 2.0 µM
- TC50 (toxic concentration that killed 50% of MRC-5 cells) (MRC-5 cells; listed as remdesivir): > 2.00 µM
- TC50 (toxic concentration that killed 50% of MRC-5 cells) (MRC-5 cells; listed as remdesivir (1)): > 2 ± 0 µM
- EC50 (HCoV-229E; [1]): 0.067 ± 0.012 µM
- EC50 (HCoV-229E; read-out: EC50 (effective concentration that reduced 50% of viral cytopathic effect), HCoV-229E in MRC-5 cells, 6 days, triplicate data points): 0.07 µM

Compound: CCCCCCCCCCCCCC(=O)OC[C@@H]1O[C@H](n2ccc(N)nc2=O)CS1 [5′-O-(tetradecanoyl)3TC (7), 5′-O-(tetradecanoyl)3TC]
- TC50 (toxic concentration that killed 50% of MRC-5 cells) (MRC-5 cells): 47.5 µM
- TC50 (toxic concentration that killed 50% of MRC-5 cells) (MRC-5 cells; listed as 7): 45.4 to 55.3 µM
- EC50 (HCoV-229E; [1]): > 47.5 µM

Compound: CCCCCCCCCCCCCC(=O)OC[C@@H]1O[C@H](n2cc(F)c(N)nc2=O)CS1 [5′-O-(tetradecanoyl)FTC (9), 5′-O-(tetradecanoyl)FTC]
- TC50 (toxic concentration that killed 50% of MRC-5 cells) (MRC-5 cells): 87.5 µM
- TC50 (toxic concentration that killed 50% of MRC-5 cells) (MRC-5 cells; [2]): 87.5 ± 1.34 µM
- EC50 (HCoV-229E; [1]): 72.8 µM
- Therapeutic Index (TC50/EC50) (HCoV-229E): 1.20
- Therapeutic Index (TC50/EC50) (HCoV-229E; [2]): 1.2

Compound: CCSCCCCCCCCCCCC(=O)OC[C@H]1O[C@@H](n2cc(C)c(=O)[nH]c2=O)C[C@@H]1F [5′-O-(12-thioethydodecanoyl)FLT (5), 5′-O-(12-thioethydodecanoyl)FLT]
- TC50 (toxic concentration that killed 50% of MRC-5 cells) (MRC-5 cells): 45.4 µM
- TC50 (toxic concentration that killed 50% of MRC-5 cells) (MRC-5 cells; listed as 5): 45.4 to 55.3 µM
- EC50 (HCoV-229E; [1]): > 45.4 µM
